Test results: patent publication US6472404B1 (priority 2000, dated 2002)

Key:
[1] = test system: HIV-HXB2; assay: Antiviral assay: protection of HIV-infected MT4 cells from cell death (MTT); type: cell-based; conditions: Human immunodeficiency virus 1, 120 h; MT4 cells infected with HIV-HXB2; 5 days; MTT viability; rounded to nearest whole number
Procedure: Methods 20: 309-321]. The method is based on the ability of compounds to protect HIV-infected T lymphoblastoid cells (MT4 cells) from cell-death mediated by the infection. The endpoint of the assay was calculated as the concentration of compound at which the cell viability of the culture was preserved by 50% (‘50% inhibitory concentration’, IC50). The cell viability of a culture was determined by the uptake of soluble, yellow 3-[4,5-dimethylthiazol-2-yl]-2,5-diphenyltetrazolium bromide (MTT) and its reduction to a purple insoluble formazan salt. After solubilization, spectrophotometric methods were employed to measure the amount of formazan product.
MT4 cells were prepared to be in logarithmic-phase growth and a total of 2×10^6 cells infected with either the wild type or site directed mutant clones of HIV-HXB2 at a multiplicity of approximately 0.0001 infectious units of virus per cell in a total volume of between 200-500 μl. The cells were incubated with virus for one hour at 37° C. then washed in 0.01 M phosphate buffered saline, pH 7.2, and resuspensed in culture medium for incubation in culture with serial dilutions of test compound. The culture medium used was RPMI 1640 without phenol red, supplemented with penicillin, streptomycin, L-glutamine and 10% fetal calf serum (GM10).
Test compounds were prepared as 2 mM solutions in dimethyl sulphoxide (DMSO). Four replicate, serial 2-fold dilutions in GM10 were then prepared and 50 microliter amounts placed in 96-well plates over a final concentration range of […]. Fifty microliters GM10 and 3.75×10^4 infected cells were then added to each well. Control cultures containing no cells (blank), uninfected cells (100% viability; 4 replicates) and infected cells without compound (total virus-mediated cell death; 4 replicates) were also prepared. The cultures were then incubated at 37° C. in a humidified atmosphere of 5% CO2 in air for 5 days.
A fresh solution of 5 mg/mL MTT was prepared in 0.01 M phosphate buffered saline, pH 7.2 and 20 μL added to each culture. The cultures were further incubated as before for 2 hours. They were then mixed by pipetting up and down, and 170 microliters of Triton X-100 in acidified isopropanol (10% v/v Triton X-100 in 1:250 mixture of concentrated HCl in isopropanol) were added and the cultures were mixed again by pipetting up and down. When the formazan deposit was fully solubilized by further mixing, the absorbance (OD) of the cultures was measured at 540 nm and 690 nm wavelength (690 nm readings were used as blanks for artefacts between wells). The percent protection for each treated culture was then calculated from the equation:
OD drug-treated cultures)−(OD untreated virus control cultures) % Protection=100%
(OD uninfected cultures)−(OD untreated virus control cultures)
The IC50 was then obtained from graph plots of percentage protection versus log10 drug concentration.

[2] = target: HIV-1 protease (Human immunodeficiency virus type 1 group M subtype B, UniProt P04585); assay: HIV protease inhibition assay (quenched fluorogenic substrate, fluorescence energy transfer)
Procedure: HIV protease inhibitory activity was assessed using an adaptation of the method of Matayoshi. et al. [Matayoshi E. D. et al (1990).
Crude HIV-1 protease was prepared from E. coli pPTΔN. Cultures were grown at 30° in M9 medium supplemented with 0.2% casamino acids, 100 μg/ml ampicillin and 25 μg/ml thiamine until OD600=0.5-0.6, and the temperature was raised to 42° to induce expression of the protease. After 1.5 hours, the cells were harvested and the pellets stored at −70° until required.
The protease was prepared by lysis of the cells in a French pressure cell followed by precipitation of the enzyme with ammonium sulfate at 30% saturation.
The assay buffer comprised 0.1M sodium acetate pH 4.7, 8 mM EDTA, 0.2 M NaCl.
Tubes were incubated for 2 hours at 37° and the reaction was terminated by the addition of 500 μl of a 2:1 mixture of DMSO:50 mM Tricine pH 8.5. Fluorescence was measured in a fluorescence spectrophotometer, excitation λ=340 nm, emission λ=492 nm.

COC(=O)N[C@H](C(=O)N[C@@H](Cc1ccccc1)[C@H](O)CN1C[C@H]2CCCC[C@H]2C[C@H]1C(=O)NC(C)(C)C)C(C)(C)S(C)(=O)=O [Example 4, N-tert-Butyl-1,2,3,4,4a(S),5,6,7,8,8a(S)-decahydro-2-[2(R)-hydroxy-3(S)-[[3-(methanesulfonyl)-N-(methoxycarbonyl)-L-valyl]amino]-4-phenylbutyl]-3(S)-isoquinolinecarboxamide]
melting point: 190 to 194 °C | IC50 [1]: 14 nM | IC50 [2]: 2.8 nM
